We go through 1 compound from patent publication US6962930B1, “Compounds, compositions and method suitable for amelioration of withdrawal syndromes and withdrawal-induced brain damage” (Lohocla Research Corporation, priority 1997, dated 2005).

Format in all cases: cell-based
Assay [1] addresses T1, NR1a/NR2B recombinant receptors (Homo sapiens, UniProt Q05586+Q13224).
T1 construct: expressed in transfected cells; host or cells: Xenopus laevis oocytes, nuclear cDNA injection
Kind of assay: NMDA-induced currents in oocytes expressing NR1a/NR2B. The following applies: 100 μM NMDA, 0.3 μM glycine, oocytes; read-out: IC50, inhibition of NMDA-induced currents. Here is the method: (§1) Oocytes were obtained from Xenopus laevis frogs (Nasco or Xenopus I) kept in aquarium tanks at 19–21° C., on a 12 hr light/dark cycle. Mature females were anesthetized by immersion for approximately 30 min in a 0.12% 3-aminobenzoic acid ethyl ester solution, a small incision was made in the abdominal wall and a piece of ovary was removed and placed in Modified Barth's solution (MBS; in mM) containing 88 NaCl, 1 KCl, 10 HEPES, 0.82 MgSO4, 2.4 NaHCO3, 0.91 CaCl2, 0.33 Ca(NO3)2 (pH 7.5). To facilitate manual dissection of oocytes, a section of ovary was transferred from MBS to a hypertonic buffer containing 108 mM NaCl, 2 mM KCl, 2 mM EDTA, 10 mM HEPES, pH 7.5 and theca and epithelial layers of mature oocytes (stages V and VI) were removed with surgical forceps. The follicular layer was removed by a 10 min immersion in 0.5 mg/ml of collagenase in buffer containing 83 mM NaCl, 2 mM KCl, 1 mM MgCl2 and 5 mM HEPES.
(§2) Human NR1a, NR2A and NR2B cDNAs in pCDNA-1Amp were transformed and amplified in XL-1 Blue cells and purified with the MaxPrep Qiagen kit. Oocytes were injected with cDNA into the nucleus in the following concentrations: NR1a/2A cDNAs 0.75 ng/30 nl 1:1 ratio, NR1a/2B cDNAs 3.0 ng/30 nl: 1:1 ratio. Injections were made with micropipettes (10 μm tip diameter) connected to a Drummond micropipettor attached to a micromanipulator. After injection, oocytes were individually placed in wells of 96-well microtiter plates containing incubation medium (MBS supplemented with 10 mg/l streptomycin, 10,000 U/l penicillin G, 50 mg/l gentamicin, 2 mM sodium pyruvate, 0.5 mM theophylline) that had been sterilized by passage through a […]. Oocytes were incubated at 19° C. for 2 to 4 days after injection.
(§3) Oocytes were placed in a rectangular chamber (approximately […]) and perfused (2 ml/min) with frog Ringer (in mM) containing 115 NaCl, 2.5 KCl, 1.8 CaCl2, 10 HEPES (pH 7.2). […] Control responses were always measured before and after addition of the DCUKA. […] Data are expressed as the % inhibition of the agonist response obtained in the absence of the drug.

The target in assay [2] is T2, NR1a/NR2B recombinant receptors (Homo sapiens, UniProt Q05586).
T2 construct: expressed in transfected cells; host or cells: Xenopus laevis oocytes, nuclear cDNA injection
Described as above. As to conditions: 100 μM NMDA, 50 μM DCUKA, increasing glycine. Here is the method:
as §1, §2, §3

For assay [3], the target named is T3, RSM (μl) sodium channels (Rattus norvegicus, UniProt P15390).
T3 construct: expressed in transfected cells
Kind of assay: Sodium currents, whole cell patch clamp in CHO cells. As to conditions: held at −100 mV, successive depolarizations. How it is done:
Chinese hamster ovary (CHO) cells stably expressing RSM (μl) sodium channels were studied using the patch clamp whole cell recording technique. CHO cells were grown to confluence in Dulbecco's Modified Eagle's Medium fortified with 15% FBS, 100 U/ml penicillin and 100 μg/ml streptomycin in a humidified incubator at 37° C. and 5% CO2, with medium changed every 2–3 days. Transfections with the plasmid pZemμ1–2 were performed using the calcium phosphate coprecipitation method. After 24 hr of incubation with DNA, standard culturing conditions were resumed. After 3 days, stably transfected cells were selected with 400 μg/ml geneticin. Transfected cells were grown to confluence and then plated on 35 mm culture dishes for 24–96 hr before the experiment.
An 8900 Dagan patch clamp amplifier with a 1 GΩ 8920 Dagan headstage was used in combination with a Nikon Diaphot inverted microscope. Micromanipulators were used to place the electrode onto the cell. Electrodes were pulled to a resistance of […]. […] Peak currents were determined from these traces. DCUKA dissolved in 0.4% DMSO was added directly to the bath following seal formation and the data are expressed as the % of the initial peak current response obtained before drug addition. […]
(In patch-clamp work, channel activity is measured electrically.)

T3 sequence (P15390 whole entry): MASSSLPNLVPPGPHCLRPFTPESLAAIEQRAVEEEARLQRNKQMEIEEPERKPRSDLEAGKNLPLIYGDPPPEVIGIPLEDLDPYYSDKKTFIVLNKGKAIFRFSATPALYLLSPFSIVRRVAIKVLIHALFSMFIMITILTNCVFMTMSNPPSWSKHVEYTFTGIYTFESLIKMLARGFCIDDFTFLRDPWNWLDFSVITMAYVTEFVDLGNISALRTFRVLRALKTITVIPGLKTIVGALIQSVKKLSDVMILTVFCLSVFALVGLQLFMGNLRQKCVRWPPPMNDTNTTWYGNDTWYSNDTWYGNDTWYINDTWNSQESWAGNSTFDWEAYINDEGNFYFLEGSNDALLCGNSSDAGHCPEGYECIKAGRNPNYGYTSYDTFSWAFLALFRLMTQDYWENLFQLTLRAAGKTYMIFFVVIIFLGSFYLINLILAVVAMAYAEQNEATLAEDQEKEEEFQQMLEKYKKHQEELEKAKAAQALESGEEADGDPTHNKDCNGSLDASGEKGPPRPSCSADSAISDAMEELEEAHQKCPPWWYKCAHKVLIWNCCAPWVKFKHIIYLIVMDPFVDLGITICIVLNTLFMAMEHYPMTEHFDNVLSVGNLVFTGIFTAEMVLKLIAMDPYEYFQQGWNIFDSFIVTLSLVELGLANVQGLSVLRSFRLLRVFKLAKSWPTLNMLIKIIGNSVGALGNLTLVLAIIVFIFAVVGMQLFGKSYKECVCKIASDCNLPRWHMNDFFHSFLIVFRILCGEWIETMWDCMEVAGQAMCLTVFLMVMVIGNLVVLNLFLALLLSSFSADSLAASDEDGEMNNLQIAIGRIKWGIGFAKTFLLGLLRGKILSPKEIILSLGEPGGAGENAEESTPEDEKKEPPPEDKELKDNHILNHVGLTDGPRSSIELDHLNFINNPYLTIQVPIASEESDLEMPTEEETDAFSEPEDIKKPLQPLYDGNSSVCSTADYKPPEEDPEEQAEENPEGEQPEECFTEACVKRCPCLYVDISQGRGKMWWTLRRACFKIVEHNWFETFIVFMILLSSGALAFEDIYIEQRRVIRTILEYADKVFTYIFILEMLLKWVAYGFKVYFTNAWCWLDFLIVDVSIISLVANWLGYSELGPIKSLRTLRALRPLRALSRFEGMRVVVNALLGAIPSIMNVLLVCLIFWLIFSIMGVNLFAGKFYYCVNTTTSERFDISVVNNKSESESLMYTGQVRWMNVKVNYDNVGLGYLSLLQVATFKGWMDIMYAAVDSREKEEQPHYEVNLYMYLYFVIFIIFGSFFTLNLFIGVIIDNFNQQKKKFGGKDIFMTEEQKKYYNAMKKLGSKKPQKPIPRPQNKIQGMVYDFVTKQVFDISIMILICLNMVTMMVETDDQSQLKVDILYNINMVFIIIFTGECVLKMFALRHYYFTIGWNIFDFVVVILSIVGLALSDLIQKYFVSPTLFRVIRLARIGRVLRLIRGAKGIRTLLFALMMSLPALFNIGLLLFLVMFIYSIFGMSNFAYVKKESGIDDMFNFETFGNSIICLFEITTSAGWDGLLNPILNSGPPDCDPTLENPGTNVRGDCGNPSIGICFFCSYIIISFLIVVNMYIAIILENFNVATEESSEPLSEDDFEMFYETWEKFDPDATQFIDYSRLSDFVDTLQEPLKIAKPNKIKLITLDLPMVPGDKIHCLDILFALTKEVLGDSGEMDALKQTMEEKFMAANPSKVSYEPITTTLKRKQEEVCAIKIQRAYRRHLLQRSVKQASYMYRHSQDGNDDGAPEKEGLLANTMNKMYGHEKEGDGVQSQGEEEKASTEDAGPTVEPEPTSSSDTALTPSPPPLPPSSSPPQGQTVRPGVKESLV

What is called IC50 is the concentration needed to halve the response being measured. Turning to `O=C(O)c1cc(NC(=O)N(c2ccccc2)c2ccccc2)c2c(Cl)cc(Cl)cc2n1` [DCUKA, (N,N-diphenyl)-4-ureido-5,7-dichloro-2-carboxy-quinoline], the IC50 in assay [1] came out at 20.7 µM. Besides, the “reversal by glycine of inhibition of NMDA-induced currents” value in assay [2] was “completely reversed at 10 μM glycine”. For the same compound, the “effect on sodium current through VSNaCs” value in assay [3] is “use- and voltage-dependent inhibitor of VSNaCs”.
